From patent US11020378B2, “Compounds, compositions and methods for treating insulin resistance” (UNIVERSITE PARIS DESCARTES, priority 2017, dated 2021) come the findings set out here.

Series [1] deals with PEPCK and G6Pase expression. Put plainly: Expression of neoglucogenesis genes in hepatocytes in primary culture (RT-qPCR). The class given is cell-based, mice. As to conditions: 50 μM; glucagon 10 nM; absence of insulin; 8 h. On the procedure: FIG. 6, the effect of the compound of Formula (Ia) according to the invention (black bars) on the expression of insulin target genes, PEPCK (FIG. 6A) and G6Pase (FIG. 6B), involved in the neoglucogenesis pathway. Hepatocytes in primary culture are cultured for 8 h in the presence of compounds of Formula (Ia) (50 μM), insulin (1 nM) and glucagon (pre-incubation 1 h at 10 nM). The relative quantification of mRNAs is performed by RT-qPCR. The values are related to the quantification of the 18S gene in the same sample in order to normalize the results. The results are the average of 3 to 5 independent experiments (*p<0.05, **p<0.01, by Anova followed by a Newman-Keuls test).
To study the inhibitory effect of insulin on neoglucogenesis gene expression, hepatocytes from mice in primary culture were pre-incubated with 10 nM glucagon.
A general note: In qPCR the cycle at which signal appears reflects the starting amount.

Series [2] deals with T1, IR-Grb14 interaction (Homo sapiens, UniProt P06213).
T1 construct: a vector encoding the insulin receptor fused to the luciferase (IR-Luc); made in house; host or cells: HEK293T (transfected); IR-Luc was partially purified on wheat germ lectin sepharose; Grb14-YFP was used as crude lysate
Put plainly: IR-Luc/Grb14-YFP BRET technique in a cell-free system. The class given is binding. On the procedure: Compounds according to the invention were experimentally assessed for their inhibitory effect on the IR-Grb14 interaction by a BRET technique in a cell-free system described briefly below.
On the one hand, HEK293T cells were transfected with a vector encoding the insulin receptor fused to the luciferase (IR-Luc). Before lysis, the cells transfected with IR-Luc were stimulated or not with 100 nM insulin for 10 minutes. The IR-Luc lysates were recovered and then purified on sepharose beads coupled with wheat germ lectin (WGL for Wheat Germ Lectin). The IR-Luc receptors were then eluted and then frozen in liquid nitrogen before being stored at −80° C. On the other hand, HEK293T cells were transfected either with a vector encoding the Grb14 protein fused to the YFP (Grb14-YFP), or with the empty plasmid pcDNA3. The cells transfected with Grb14-YFP or with the empty plasmid pcDNA3 were lysed 48 h after transfection. After centrifugation, the lysates are recovered and frozen at −80° C.
The insulin receptors (IR-Luc) partially purified from cells stimulated or not with insulin were incubated for 20 minutes with the inhibitor compounds according to the invention suspended in DMSO. The cellular extracts from cells transfected with Grb14-YFP (or the empty plasmid pcDNA3) were then added and then after 40 minutes of incubation, coelenterazine was added and BRET reading was initiated. The results are expressed as a percentage of the BRET signal obtained in the presence of the molecules tested compared to the BRET signal of the DMSO control.

The target of series [3] is T2, IRTK-Grb10 interaction (Homo sapiens, UniProt P06213).
T2 construct: a construct bearing only the tyrosine kinase domain of the luciferase-fused receptor and the Grb10 protein fused to YFP; expressed in transfected cells; host or cells: HEK 293T
Put plainly: Co-immunoprecipitation of IRTK48-RLuc with Grb10-YFP in co-transfected HEK 293T cells. The class given is cell-based. The note with it: same experiment as with Grb14. On the procedure:
In order to test the specificity of the compound of Formula (Ia) on this IRTK-Grb14 interaction, the same experiment was conducted with HEK 293T cells co-transfected with a construct bearing only the tyrosine kinase domain of the luciferase-fused receptor and the Grb10 protein fused to YFP. Indeed, the Grb10 protein also binds to the phosphorylated insulin receptor and inhibits its catalytic activity.

The target of series [4] is T1, IR-Grb14 interaction. In words: Co-immunoprecipitation of IR-Luc with Grb14-YFP in a cell-free system (Western blot). Format: binding. As to conditions: for reduction of the amount of co-precipitated IR-Luc: dose series, results not shown. On the procedure:
The inhibitory effect of the compounds according to the invention on the IR-Grb14 interaction has been confirmed in co-immunoprecipitation experiments in a cell-free system. IR-Luc extracts, stimulated or not by insulin, […] before being incubated with the cellular extract containing the fusion protein Grb14-YFP for 40 minutes. Immunoprecipitation against YFP allows to analyze by Western blot the amount of receptor that has remained associated with the Grb14 protein.
Background: Immunoblotting shows a protein as a band on a membrane.

In series [5] the target is T3, IRTK-Grb14 interaction (Homo sapiens, UniProt P06213).
T3 construct: a construct bearing only the tyrosine kinase domain of the luciferase-fused receptor (IRTK48-RLuc); expressed in transfected cells; host or cells: HEK 293T
In words: Co-immunoprecipitation of IRTK48-RLuc with Grb14-YFP in co-transfected HEK 293T cells. As to conditions: 50 μM; 4 hours; no insulin. The class given is cell-based. On the procedure: HEK 293T cells co-transfected with a construct bearing only the tyrosine kinase domain of the luciferase-fused receptor (IRTK48-RLuc) and the Grb14 protein fused to YFP were incubated for 4 hours in the presence of compounds according to the invention. In the absence of α subunits, the tyrosine kinase domain of the insulin receptor spontaneously autophosphorylates, so it is not necessary to add insulin to stimulate the IRTK-Grb14 interaction.

Series [6] deals with PI3K/Akt pathway. Put plainly: Luc-Akt-PH/YFP-membrane BRET in HEK293T cells (recruitment of Akt to the membrane). Format: cell-based. As to conditions: for BRET delta (recruitment of the Akt protein to the membrane): 50 μM. The text has this: To measure the activity of the PI3-kinase pathway by the BRET technique, HEK293T cells are transfected with plasmids allowing, on the one hand, the expression of the PH (Pleckstrin Homology) domain of the Akt protein which has been fused to the luciferase and, on the other hand, a membrane-addressing sequence which has been fused to the YFP protein. When the PH domain of Akt is recruited to the membrane by the PIP3s, an energy transfer between the luciferase that is coupled to the PH domain of Akt and the membrane YFP protein takes place. The measured BRET signal is a control of the production of PIP3s at the membrane and is a reflection of the activation of the PI-3-kinase/Akt pathway in real time on cells.
On the technique in general: Bioluminescence resonance energy transfer reports proximity on the nanometre scale.

In series [7] the test system is HEK293T cells. Put plainly: Growth and survival of HEK293T cells (resazurin fluorescence, 72 h). Format: cell-based. The note with it: 0.1% or 10% serum. On the procedure:
In order to study the effect of the compound of Formula (Ia) on cell growth and survival, HEK293T cells were cultured for 72 h at different serum concentrations (0.1%, 1%, 10%), in the absence or presence of compounds of Formula (Ia) (50 or 100 μM). The fluorescence of the cells was measured before and after treatment using a reagent containing resazurin. Since the intensity of fluorescence is correlated with the number of living cells, cell growth is estimated by relating the fluorescence measured at 72 h of treatment to that measured at t0. The presence of serum promotes cell growth. Thus, after 72 h, an increase in the cell population of 7 times at 0.1% of serum and of 10 times at 1 or 10% of serum is observed.

[8] abbreviates: absence of insulin, results not shown.

T1 sequence (P06213 763-1382 limits assumed): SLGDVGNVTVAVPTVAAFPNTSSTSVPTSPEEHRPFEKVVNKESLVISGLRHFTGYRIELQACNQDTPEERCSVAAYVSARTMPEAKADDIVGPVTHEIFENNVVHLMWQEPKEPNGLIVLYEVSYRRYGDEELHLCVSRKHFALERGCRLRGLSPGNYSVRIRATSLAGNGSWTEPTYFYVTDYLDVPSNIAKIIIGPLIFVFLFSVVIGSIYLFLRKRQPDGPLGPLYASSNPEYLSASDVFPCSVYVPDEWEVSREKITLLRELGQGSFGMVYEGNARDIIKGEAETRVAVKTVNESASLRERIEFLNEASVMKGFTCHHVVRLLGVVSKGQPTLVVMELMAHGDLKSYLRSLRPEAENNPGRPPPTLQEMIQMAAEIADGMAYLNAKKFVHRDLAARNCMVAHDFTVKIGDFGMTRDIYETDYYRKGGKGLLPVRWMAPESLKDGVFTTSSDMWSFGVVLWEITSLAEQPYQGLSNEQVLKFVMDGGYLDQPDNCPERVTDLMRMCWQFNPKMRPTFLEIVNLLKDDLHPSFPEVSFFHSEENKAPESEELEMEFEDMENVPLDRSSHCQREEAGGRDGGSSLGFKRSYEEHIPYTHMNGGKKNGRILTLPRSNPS
T1 sequence (P06213 28-758 partner limits assumed): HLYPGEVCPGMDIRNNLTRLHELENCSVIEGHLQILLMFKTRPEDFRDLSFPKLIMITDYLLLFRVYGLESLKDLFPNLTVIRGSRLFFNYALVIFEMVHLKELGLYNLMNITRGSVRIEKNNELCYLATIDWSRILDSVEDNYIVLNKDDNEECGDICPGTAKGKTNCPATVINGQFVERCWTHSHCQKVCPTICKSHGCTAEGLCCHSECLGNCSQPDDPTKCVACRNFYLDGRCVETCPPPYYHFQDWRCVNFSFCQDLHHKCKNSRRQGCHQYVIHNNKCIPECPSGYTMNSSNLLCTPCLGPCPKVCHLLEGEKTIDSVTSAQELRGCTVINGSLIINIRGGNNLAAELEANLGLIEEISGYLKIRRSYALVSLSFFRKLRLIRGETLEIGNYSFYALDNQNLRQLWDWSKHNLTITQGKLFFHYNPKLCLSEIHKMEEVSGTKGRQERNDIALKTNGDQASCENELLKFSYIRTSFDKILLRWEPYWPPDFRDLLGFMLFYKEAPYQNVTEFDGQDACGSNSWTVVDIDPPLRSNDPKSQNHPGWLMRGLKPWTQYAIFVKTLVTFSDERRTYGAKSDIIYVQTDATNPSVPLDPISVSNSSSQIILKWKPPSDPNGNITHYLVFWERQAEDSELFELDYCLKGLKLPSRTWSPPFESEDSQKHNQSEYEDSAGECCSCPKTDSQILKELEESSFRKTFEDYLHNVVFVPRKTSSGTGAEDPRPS
T3 sequence (P06213 1023-1298 limits assumed): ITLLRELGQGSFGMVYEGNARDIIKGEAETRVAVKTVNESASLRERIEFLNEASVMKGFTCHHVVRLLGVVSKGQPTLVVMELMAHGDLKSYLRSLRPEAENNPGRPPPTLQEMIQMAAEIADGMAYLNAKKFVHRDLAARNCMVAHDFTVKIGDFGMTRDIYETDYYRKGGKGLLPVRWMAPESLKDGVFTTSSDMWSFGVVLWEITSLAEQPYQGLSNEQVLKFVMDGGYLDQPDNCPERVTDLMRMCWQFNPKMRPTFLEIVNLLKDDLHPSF
T2 sequence (P06213 1023-1298 limits assumed): as above

For `Cc1ccc(/C=C/C(=O)Nc2ccc(S(=O)(=O)Nc3onc(C)c3C)cc2)o1` [Ia], the “decrease in glucagon-induced G6Pase expression” value in series [1] was “about 20%”. Besides, in series [1], the “decrease in glucagon-induced PEPCK expression” value is given as “about 20%”. Moreover, in series [2] (50 μM, insulin stimulation (100 nM), read-out: % BRET signal/DMSO control), the remaining activity at 50 µM turned out to be 39%. The “decrease in the BRET signal between the insulin receptor and the Grb14 protein” value in series [2] (50 μM, with insulin stimulation) turned out to be 60%. Moreover, the “decrease in the BRET signal” value in series [2] (in the absence of stimulation with insulin) was 50%. The “amounts of tyrosine kinase domain of the insulin receptor co-immunoprecipitated with the Grb10 protein” value in series [3] is “does not change”. The “reduction of the amount of co-precipitated IR-Luc” value in series [4] (25 μM) stood at 20%; in series [4] (50 μM) it was 50%. In series [4] (50 μM, in the presence of insulin, read-out: reduction of the amount of insulin receptors associated with the Grb14 protein), the inhibition at 50 µM was 60%. Moreover, in series [5], the “reduction of the amount of tyrosine kinase domain of the insulin receptor co-immunoprecipitated with the Grb14 protein” value was 75%. Further, the “BRET delta (recruitment of the Akt protein to the membrane)” value in series [6] (absence of insulin) is “about 86”; in series [6] (presence of 5 nM insulin) it was “about 121”. In series [6] (setting [8]), the “concentration at which the increase in the BRET signal / PI3K/Akt activation is significant” value worked out at 10 µM. Moreover, in series [6] (setting [8]), the “concentration from which the effect on the BRET signal is detectable” value amounted to 5 µM. For the same compound, the “effect on the recruitment of the Akt protein to the membrane after AG1024” value in series [6] (cells pre-incubated 1 h with 25 μM AG1024, Ia 50 μM, insulin 5 nM) is “no longer have any effect”. The BRET delta in series [6] (without insulin) is 86 (+/−41). Moreover, the cell growth rate result in series [7] (50 μM) and in series [7] (100 μM) was “does not alter” throughout.
